From patent US11083724B2, “Rimegepant for CGRP related disorders” (Biohaven Pharmaceutical Holding Company Ltd., priority 2018, dated 2021)

What was measured:
[1] = system: subjects with Acute Migraines; test: Pooled liver function test profile, Study 301 and Study 302; assay type: in vivo, human
Description: (§1) In a double-blind, randomized, placebo-controlled, multicenter study (Study 301, NCT03235479) adults≥18 years of age with at least a 1-year history of ICHD 3-beta migraine were eligible to participate. Following a 3- to 28-day screening period, subjects were randomized to receive rimegepant 75 mg or matching placebo and instructed to treat a single migraine attack with 1 dose of the blinded study drug (rimegepant or placebo) when headache pain reached moderate or severe intensity. The coprimary endpoints were pain freedom at 2 hours postdose and freedom from the most bothersome symptom (MBS) at 2 hours postdose. Safety assessments included adverse events (AEs), ECGs, vital signs, physical measurements, and routine laboratory tests, including assessment of liver function. Unless stated otherwise, values presented are mean±SD.
as §1, with “302, NCT03237845)” for “301, NCT03235479)”

patients with migraine = test: Study 201 (BHV3000-201, NCT03266588): open label long-term safety study, rimegepant 75 mg oral tablet; assay type: in vivo, human
Description: Clinical Trial-BHV3000-201: Open Label Safety Study in Acute Treatment of Migraine (ClinicalTrials.gov A phase 2⁄3 clinical study is conducted with about 2000 participants, as follows. The purpose of this study is to evaluate safety and tolerability of BHV3000 (rimegepant). Study Design • Study Type: Interventional (Clinical Trial) • Estimated Enrollment: 2000 participants • Intervention Model: Single Group Assignment • Masking: None (Open Label) • Primary Purpose: Treatment • Official Title: A Multicenter, Open Label Long-Term Safety Study of BHV3000 in the Acute Treatment of Migraine • Actual Study Start Date: Aug. 30, 2017 • Estimated Primary Completion Date: July 2019 • Estimated Study Completion Date: July 2019 Arms and Interventions Outcome Measures Primary Outcome Measures: 1. To assess the safety and tolerability of rimegepant (BHV-3000) by measuring the frequency and severity of adverse events and discontinuations due to adverse events [Time Frame: 52 weeks] Number of subjects with treatment-emergent adverse events as assessed through laboratory tests, ECGs, physical exam findings (safety and tolerability) Secondary Outcome Measures: 1. ALT or […] with total bilirubin>2×ULN [Time Frame: 52 weeks] elevated liver function tests 2. hepatic related adverse events and hepatic related adverse events that lead to discontinuation [Time Frame: 52 weeks] adverse events related to liver Results from the clinical trial described in Example 10 are summarized as follows. […] Patients were allowed to treat migraine attacks of all severities (mild to severe) up to once daily for a full year. The initial results for hepatic safety and tolerability of rimegepant 75 mg in study participants is based upon review of both adverse events and regularly scheduled liver function tests. Interim hepatic data were reviewed by an external and independent panel of liver experts. […] In the aggregate, it was noted that compared to migraine trials with drugs other than rimegepant, there was a very low incidence of overall elevations of liver function test abnormalities in rimegepant treated patients (1.0% incidence of serum ALT or […]). Subjects will continue to participate in Study 201 with additional data analyses to be submitted in the NDA and required 120-day safety updates.

[2] = pooled Study 301 and 302, n = 1089

N[C@@H]1c2cccnc2[C@H](OC(=O)N2CCC(n3c(=O)[nH]c4ncccc43)CC2)CC[C@H]1c1cccc(F)c1F [Rimegepant, [(5S,6S,9R)-5-amino-6-(2,3-difluorophenyl)-6,7,8,9-tetrahydro-5H-cyclohepta[b]pyridin-9-yl] 4-(2-oxo-3H-imidazo[4,5-b]pyridin-1-yl)piperidine-1-carboxylate]
Pooled Liver Function Test profile versus placebo ([1]; Study 301 and Study 302): Rimegepant was Similar to Placebo in Both Studies
bilirubin elevations > 2 × ULN ([1]; across both Studies 301 and 302): *No bilirubin elevations > 2 × ULN across both Studies 301 and 302
ALT >3 × ULN, number of subjects [1, 2]: 1
ALT >3 × ULN, percent of subjects [1, 2]: 0.1%
ALT >5 × ULN, number of subjects [1, 2]: 0
ALT >10 × ULN, number of subjects [1, 2]: 0
ALT >20 × ULN, number of subjects [1, 2]: 0
ALT >ULN, number of subjects [1, 2]: 22
ALT >ULN, percent of subjects [1, 2]: 2.0%
AST >3 × ULN, number of subjects [1, 2]: 1
AST >3 × ULN, percent of subjects [1, 2]: 0.1%
AST >5 × ULN, number of subjects [1, 2]: 0
AST >10 × ULN, number of subjects [1, 2]: 0
AST >20 × ULN, number of subjects [1, 2]: 0
AST >ULN, number of subjects [1, 2]: 12
AST >ULN, percent of subjects [1, 2]: 1.1%
>=20.0% decrease in migraines per month, number of subjects (patients with migraine; Enrollment Group (2-8)): 353
>=20.0% decrease in migraines per month, percent of subjects (patients with migraine; Enrollment Group (2-8)): 35.2%
>=25.0% decrease in migraines per month, number of subjects (patients with migraine; Enrollment Group (2-8)): 308
>=25.0% decrease in migraines per month, percent of subjects (patients with migraine; Enrollment Group (2-8)): 30.7%
>=30.0% decrease in migraines per month, number of subjects (patients with migraine; Enrollment Group (2-8)): 268
>=30.0% decrease in migraines per month, percent of subjects (patients with migraine; Enrollment Group (2-8)): 26.7%
>=35.0% decrease in migraines per month, number of subjects (patients with migraine; Enrollment Group (2-8)): 224
>=35.0% decrease in migraines per month, percent of subjects (patients with migraine; Enrollment Group (2-8)): 22.3%
>=40.0% decrease in migraines per month, number of subjects (patients with migraine; Enrollment Group (2-8)): 181
>=40.0% decrease in migraines per month, percent of subjects (patients with migraine; Enrollment Group (2-8)): 18.0%
>=45.0% decrease in migraines per month, number of subjects (patients with migraine; Enrollment Group (2-8)): 144
>=45.0% decrease in migraines per month, percent of subjects (patients with migraine; Enrollment Group (2-8)): 14.3%
>=50.0% decrease in migraines per month, number of subjects (patients with migraine; Enrollment Group (2-8)): 113
>=50.0% decrease in migraines per month, percent of subjects (patients with migraine; Enrollment Group (2-8)): 11.3%
>=20.0% decrease in migraines per month, number of subjects (patients with migraine; Enrollment Group (4-14), n 269): 159
>=20.0% decrease in migraines per month, percent of subjects (patients with migraine; Enrollment Group (4-14), n 269): 59.1%
>=25.0% decrease in migraines per month, number of subjects (patients with migraine; Enrollment Group (4-14), n 269): 144
>=25.0% decrease in migraines per month, percent of subjects (patients with migraine; Enrollment Group (4-14), n 269): 53.5%
>=30.0% decrease in migraines per month, number of subjects (patients with migraine; Enrollment Group (4-14), n 269): 130
>=30.0% decrease in migraines per month, percent of subjects (patients with migraine; Enrollment Group (4-14), n 269): 48.3%
>=35.0% decrease in migraines per month, number of subjects (patients with migraine; Enrollment Group (4-14), n 269): 117
>=35.0% decrease in migraines per month, percent of subjects (patients with migraine; Enrollment Group (4-14), n 269): 43.5%
>=40.0% decrease in migraines per month, number of subjects (patients with migraine; Enrollment Group (4-14), n 269): 100
>=40.0% decrease in migraines per month, percent of subjects (patients with migraine; Enrollment Group (4-14), n 269): 37.2%
>=45.0% decrease in migraines per month, number of subjects (patients with migraine; Enrollment Group (4-14), n 269): 83
>=45.0% decrease in migraines per month, percent of subjects (patients with migraine; Enrollment Group (4-14), n 269): 30.9%
>=50.0% decrease in migraines per month, number of subjects (patients with migraine; Enrollment Group (4-14), n 269): 67
>=50.0% decrease in migraines per month, percent of subjects (patients with migraine; Enrollment Group (4-14), n 269): 24.9%
>=20.0% decrease in migraines per month, number of subjects (patients with migraine; Enrollment Group (9-14), n 458): 171
>=20.0% decrease in migraines per month, percent of subjects (patients with migraine; Enrollment Group (9-14), n 458): 37.3%
>=25.0% decrease in migraines per month, number of subjects (patients with migraine; Enrollment Group (9-14), n 458): 150
>=25.0% decrease in migraines per month, percent of subjects (patients with migraine; Enrollment Group (9-14), n 458): 32.8%
>=30.0% decrease in migraines per month, number of subjects (patients with migraine; Enrollment Group (9-14), n 458): 125
>=30.0% decrease in migraines per month, percent of subjects (patients with migraine; Enrollment Group (9-14), n 458): 27.3%
>=35.0% decrease in migraines per month, number of subjects (patients with migraine; Enrollment Group (9-14), n 458): 101
>=35.0% decrease in migraines per month, percent of subjects (patients with migraine; Enrollment Group (9-14), n 458): 22.1%
>=40.0% decrease in migraines per month, number of subjects (patients with migraine; Enrollment Group (9-14), n 458): 81
>=40.0% decrease in migraines per month, percent of subjects (patients with migraine; Enrollment Group (9-14), n 458): 17.7%
>=45.0% decrease in migraines per month, number of subjects (patients with migraine; Enrollment Group (9-14), n 458): 60
>=45.0% decrease in migraines per month, percent of subjects (patients with migraine; Enrollment Group (9-14), n 458): 13.1%
>=50.0% decrease in migraines per month, number of subjects (patients with migraine; Enrollment Group (9-14), n 458): 46
>=50.0% decrease in migraines per month, percent of subjects (patients with migraine; Enrollment Group (9-14), n 458): 10.0%
>=20.0% decrease (reduction in headache days per month of at least 20%), number of subjects (patients with migraine; Overall, of 1731 subjects): 683
>=20.0% decrease (reduction in headache days per month of at least 20%), percent of subjects (patients with migraine; Overall, of 1731 subjects): 39.5%
>=25.0% decrease (reduction in headache days per month of at least 25%), number of subjects (patients with migraine; Overall, of 1731 subjects): 602
>=25.0% decrease (reduction in headache days per month of at least 25%), percent of subjects (patients with migraine; Overall, of 1731 subjects): 34.8%
>=30.0% decrease (reduction in headache days per month of at least 30%), number of subjects (patients with migraine; Overall, of 1731 subjects): 523
>=30.0% decrease (reduction in headache days per month of at least 30%), percent of subjects (patients with migraine; Overall, of 1731 subjects): 30.2%
>=35.0% decrease (reduction in headache days per month of at least 35%), number of subjects (patients with migraine; Overall, of 1731 subjects): 442
>=35.0% decrease (reduction in headache days per month of at least 35%), percent of subjects (patients with migraine; Overall, of 1731 subjects): 25.5%
>=40.0% decrease (reduction in headache days per month of at least 40%), number of subjects (patients with migraine; Overall, of 1731 subjects): 362
>=40.0% decrease (reduction in headache days per month of at least 40%), percent of subjects (patients with migraine; Overall, of 1731 subjects): 20.9%
>=45.0% decrease (reduction in headache days per month of at least 45%), number of subjects (patients with migraine; Overall, of 1731 subjects): 287
>=45.0% decrease (reduction in headache days per month of at least 45%), percent of subjects (patients with migraine; Overall, of 1731 subjects): 16.6%
>=50.0% decrease (reduction in headache days per month of at least 50%), number of subjects (patients with migraine; Overall, of 1731 subjects): 226
>=50.0% decrease (reduction in headache days per month of at least 50%), percent of subjects (patients with migraine; Overall, of 1731 subjects): 13.1%
headache days per month, treatment phase versus observation phase (patients with migraine; Study 201): fewer headache days per month
Hy's Law cases (patients with migraine; Study 201 interim analysis): no Hy's Law cases
liver cases assessed as probably related to study drug (patients with migraine; Study 201 interim analysis): no liver cases
incidence of serum ALT or AST >3×ULN (patients with migraine; Study 201 interim analysis, 75 mg up to once daily): 1.0%
liver safety signal (patients with migraine; Study 201 interim, including near-daily dosing (≥15 doses/month)): no liver safety signal detected
